Data published in patent US3941842A, “P,P'-Disubstituted α-trichloromethylbenzylanilines” (priority 1972, dated 1976).

Key:
[1] = test system: Musca domestica (SNAIDM and RSP strains), Phormia regina, Culex fatigans and Anopheles albimanus; experiment: Insecticidal activity over the test insects (Table II, summarised in words); assay type: in vivo; details: for SR values (in words): synergism by piperonyl butoxide; for insecticidal effectiveness / toxicity (in words): overall, test insects of Table II
Procedure: (§1) The compounds of the present invention were tested for insecticidal activity by standard methods, and compared with the insecticidal activities of DDT and symmetrical analogs of DDT, such methoxychlor. Toxicological methods for the determination of the topical LD50 values to adult female SNAIDM and RSP houseflies, Musca domestica L. and to Phormia regina, and LC50 values to Culex pipiens quinquefasciatus Say, and Anopheles albimanus Weid mosquitoes were described by Metcalf el al., 44 Bull. World Health Org. 363 (1971). The methods for evaluation of metabolism by mouse liver homogenate and by female RSP housefly and salt-marsh caterpillar larvae Estigmene acrea Drury, were described by Kapoor et al., 18 J. Agr. Food Chem. 1145 (1970). The techniques for model eocsystem evluation were described by Metcalf et al., 5 J. Environ. Sci. Tech. 709 (1971).
(§2) Since piperonyl butoxide serves to block the action of MFO, the synergized LD50 values express the intrinsic toxicity of the compounds. With the detoxifying action of MFO enzymes blocked, the intrinsic toxicity of the compounds can thus be measured.

[2] = test system: Musca domestica Rsp; experiment: Topical LD50 to adult female RSP houseflies; details: for LD50: Musca domestica, read-out: Topical LD50, Musca domestica Rsp, Alone; for LD50 / Topical LD50, Musca domestica Rsp, with pb: topical; for Topical LD50, Musca domestica Rsp, with pb: RSP strain, synergized with piperonyl butoxide; for SR, Musca domestica Rsp: synergistic ratio: LD50 alone/LD50 synergized with piperonyl butoxide
Procedure: as §1, §2

[3] = test system: Culex fatigans larvae; experiment: LC50 to Culex fatigans larvae; assay type: in vivo, Culex pipiens quinquefasciatus Say
Excerpt: (§3) World Health Org. 363 (1971). […] Food Chem. 1145 (1970). […] Sci. Tech. 709 (1971). The results are detailed in Table II. ##SPC1##

[4] = test system: Musca domestica Snaidm; experiment: Topical LD50 to adult female SNAIDM houseflies; details: for LD50: Musca domestica, read-out: Topical LD50, Musca domestica Snaidm, Alone; for LD50 / Topical LD50, Musca domestica Snaidm, with pb: topical; for Topical LD50, Musca domestica Snaidm, with pb: SNAIDM strain, synergized with piperonyl butoxide; for SR, Musca domestica Snaidm: synergistic ratio: LD50 alone/LD50 synergized with piperonyl butoxide
Procedure: as §1, §2

[5] = test system: Anopheles albimanus larvae; experiment: LC50 to Anopheles albimanus larvae; assay type: in vivo, Anopheles albimanus Weid
Excerpt: as §3

[6] = test system: Phormia regina; experiment: whole plant or invertebrate; details: for LD50: Phormia regina, read-out: Topical LD50, Phormia regina, Alone; for LD50 / Topical LD50, Phormia regina, with pb: topical; for SR, Phormia regina: synergistic ratio: LD50 alone/LD50 synergized with piperonyl butoxide; for Topical LD50, Phormia regina, with pb: synergized with piperonyl butoxide
Procedure: as §1, with “363 (1971).” left out, “Food Chem. 1145 (1970).” left out, “Tech.” for “Tech. 709 (1971).”
as §2

Structure (SMILES) | toxicity to adult insects (in words) ([1]; adult insects) | larvicidal effectiveness (in words) ([1]; mosquito larvae) | LD50 [2] | Topical LD50, Musca domestica Rsp, with pb [2] | SR, Musca domestica Rsp [2] | LC50 Culex fatigans larvae [3] | LD50 [4] | Topical LD50, Musca domestica Snaidm, with pb [4] | SR, Musca domestica Snaidm [4] | LC50 Anopheles albimanus larvae [5] | LD50 [6] | SR, Phormia regina [6] | Topical LD50, Phormia regina, with pb [6] | SR values (in words) [1] | insecticidal effectiveness / toxicity (in words) [1]
Clc1ccc(NC(c2ccc(Cl)cc2)C(Cl)(Cl)Cl)cc1 (stereo not drawn) [Compound I] | low toxicity to adult insects | very effective larvicide | 220 mg/kg | 25 μg per g | 8.8 | 0.026 ppm | 115 mg/kg | 13.5 μg per g | 8.5 | 0.090 ppm | > 250 mg/kg | > 5.5 | 42.5 μg per g |  | 
COc1ccc(NC(c2ccc(C)cc2)C(Cl)(Cl)Cl)cc1 (stereo not drawn) [Compound X] |  |  | 65 mg/kg | 7.5 μg per g | 8.7 | 0.54 ppm | 48 mg/kg | 8.5 μg per g | 5.6 | 0.48 ppm | 135 mg/kg | 9.6 | 14.0 μg per g | higher SR values | 
Cc1ccc(NC(c2ccc(C)cc2)C(Cl)(Cl)Cl)cc1 (stereo not drawn) [IV] |  |  | 43 mg/kg | 6.5 μg per g | 6.6 | 0.18 ppm | 43 mg/kg | 5.0 μg per g | 8.6 | 0.21 ppm | 33.7 mg/kg |  | 21.0 μg per g |  | one of the more insecticidal compounds
CCOc1ccc(C(Nc2ccc(Cl)cc2)C(Cl)(Cl)Cl)cc1 (stereo not drawn) [VII, α-trichloromethyl1p-ethoxybenzyl-p-chloroaniline] |  |  | 31 mg/kg | 13.5 μg per g | 2.3 | 0.032 ppm | 19 mg/kg | 10.5 μg per g | 1.8 | 0.060 ppm | 24.5 mg/kg |  | 20.0 μg per g |  | only slightly less active than compound XI
COc1ccc(NC(c2ccc(Cl)cc2)C(Cl)(Cl)Cl)cc1 (stereo not drawn) [VI] |  |  | 49 mg/kg | 14.0 μg per g | 3.4 | 0.44 ppm | 39 mg/kg | 6.5 μg per g | 6.0 | 0.37 ppm | 128 mg/kg | 1.6 | 80 μg per g | higher SR values | 
CCOc1ccc(NC(c2ccccc2)C(Cl)(Cl)Cl)cc1 (stereo not drawn) [XIX] |  |  | > 500 mg/kg | 120 μg per g | > 4 | > 1.0 ppm | > 500 mg/kg | 31.0 μg per g | > 16 | 0.61 ppm | > 250 mg/kg |  | > 250 μg per g |  | Toxicity was greatly decreased
CCCCOc1ccc(C(Nc2ccc(OC)cc2)C(Cl)(Cl)Cl)cc1 (stereo not drawn) [XVIII] |  |  | 230 mg/kg | 32.0 μg per g | 7.2 | 0.60 ppm | 370 mg/kg | 12.5 μg per g | 30 | 0.77 ppm | > 250 mg/kg |  | 67.5 μg per g |  | Toxicity was also substantially decreased
